Measurements taken from patent US10040781B2, “Tank-binding kinase inhibitor compounds” (Gilead Sciences, Inc., priority 2014, dated 2018).

Experiments:
TBK1 = TBK1 (Homo sapiens (Human), UniProt Q9UHD2); experiment: TBK1 TR-FRET enzymatic assay;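 further: phosphorylation of a biotinylated Ser/Thr peptide by purified full-length recombinant TBK1, read by TR-FRET after 240 min at 25 °C, IC50 is the geometric mean of at least four runs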
hJAK2 = hJAK2 (Homo sapiens (Human), UniProt O60674); experiment: hJAK2 LANCE TR-FRET enzymatic assay; format: biochemical; details: read-out: JAK2 IC50
Sequence of hJAK2 (O60674 whole entry): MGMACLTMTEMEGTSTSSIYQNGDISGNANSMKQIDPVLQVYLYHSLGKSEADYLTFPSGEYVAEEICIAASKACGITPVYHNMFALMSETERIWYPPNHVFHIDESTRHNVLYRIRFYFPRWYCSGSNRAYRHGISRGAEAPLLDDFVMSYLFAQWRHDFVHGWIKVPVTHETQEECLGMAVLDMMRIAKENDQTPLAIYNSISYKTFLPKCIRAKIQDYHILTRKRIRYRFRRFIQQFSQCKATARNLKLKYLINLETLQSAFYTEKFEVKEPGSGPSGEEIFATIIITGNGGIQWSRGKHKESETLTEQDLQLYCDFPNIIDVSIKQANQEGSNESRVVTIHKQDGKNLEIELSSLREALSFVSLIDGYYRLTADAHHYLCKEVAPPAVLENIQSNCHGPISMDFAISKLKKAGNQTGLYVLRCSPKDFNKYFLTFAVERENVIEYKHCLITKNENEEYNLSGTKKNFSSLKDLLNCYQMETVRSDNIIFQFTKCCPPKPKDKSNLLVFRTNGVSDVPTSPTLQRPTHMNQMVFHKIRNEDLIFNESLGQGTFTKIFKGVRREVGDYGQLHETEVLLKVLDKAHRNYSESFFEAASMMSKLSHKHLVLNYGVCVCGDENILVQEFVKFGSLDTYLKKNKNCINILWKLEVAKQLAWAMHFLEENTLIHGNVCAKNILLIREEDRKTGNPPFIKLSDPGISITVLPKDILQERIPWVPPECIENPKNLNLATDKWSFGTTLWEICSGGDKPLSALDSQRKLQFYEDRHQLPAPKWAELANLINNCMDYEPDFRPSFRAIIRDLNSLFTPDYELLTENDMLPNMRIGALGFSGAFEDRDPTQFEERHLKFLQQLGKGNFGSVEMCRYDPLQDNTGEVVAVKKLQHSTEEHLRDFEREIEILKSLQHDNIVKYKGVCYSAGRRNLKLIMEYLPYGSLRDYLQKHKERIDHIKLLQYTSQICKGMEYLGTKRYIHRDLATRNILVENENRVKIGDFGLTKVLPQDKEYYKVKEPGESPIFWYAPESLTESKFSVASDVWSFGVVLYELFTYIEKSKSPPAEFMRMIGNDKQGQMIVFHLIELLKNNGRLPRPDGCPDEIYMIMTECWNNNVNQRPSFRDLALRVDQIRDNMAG

Sequence of TBK1 (Q9UHD2 whole entry): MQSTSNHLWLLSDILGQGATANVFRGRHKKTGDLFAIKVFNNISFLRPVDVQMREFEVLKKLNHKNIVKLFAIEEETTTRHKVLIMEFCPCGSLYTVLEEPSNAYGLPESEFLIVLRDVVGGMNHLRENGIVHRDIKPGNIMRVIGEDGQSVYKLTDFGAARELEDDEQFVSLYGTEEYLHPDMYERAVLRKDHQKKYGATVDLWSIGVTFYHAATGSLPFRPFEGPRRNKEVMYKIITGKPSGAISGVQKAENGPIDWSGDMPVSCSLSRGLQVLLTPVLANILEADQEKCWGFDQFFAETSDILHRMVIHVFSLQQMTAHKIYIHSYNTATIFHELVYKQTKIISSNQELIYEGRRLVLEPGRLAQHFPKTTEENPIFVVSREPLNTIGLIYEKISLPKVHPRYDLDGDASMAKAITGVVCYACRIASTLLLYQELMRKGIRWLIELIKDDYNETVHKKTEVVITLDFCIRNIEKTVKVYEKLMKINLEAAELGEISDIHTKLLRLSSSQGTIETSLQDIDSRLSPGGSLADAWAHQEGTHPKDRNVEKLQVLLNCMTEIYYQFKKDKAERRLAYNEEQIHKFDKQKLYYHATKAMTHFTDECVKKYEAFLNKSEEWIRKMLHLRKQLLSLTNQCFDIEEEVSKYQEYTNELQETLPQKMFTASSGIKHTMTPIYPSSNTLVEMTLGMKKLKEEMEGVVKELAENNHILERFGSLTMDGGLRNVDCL

IC50 (TBK1) [nM] | IC50 (hJAK2) [nM] | Compound
3 | 387 | N#Cc1cc(-c2ncnc(Nc3ccc(N4CCN(C5COC5)CC4)cc3)n2)ccc1O[C@@H]1CCN(C(=O)CO)C1 [Example 30, (R)-2-((1-(2-hydroxyacetyl)pyrrolidin-3-yl)oxy)-5-(4-((4-(4-(oxetan-3-yl)piperazin-1-yl)phenyl)amino)-1,3,5-triazin-2-yl)benzonitrile]
9 | 444 | N#CCC(=O)N1CCC(Oc2ccc(-c3ncnc(Nc4ccc(N5CCN(C6COC6)CC5)cc4)n3)cc2C#N)CC1 [Example 44, 2-((1-(2-cyanoacetyl)piperidin-4-yl)oxy)-5-(4-((4-(4-(oxetan-3-yl)piperazin-1-yl)phenyl)amino)-1,3,5-triazin-2-yl)benzonitrile]
5 | > 1000 | CS(=O)(=O)c1ccc(Nc2ncnc(-c3ccc(OC4CCOCC4)c(C#N)c3)n2)cc1 [Example 50, 5-(4-((4-(methylsulfonyl)phenyl)amino)-1,3,5-triazin-2-yl)-2-((tetrahydro-2H-pyran-4-yl)oxy)benzonitrile]
27 | 290 | N#Cc1cc(-c2ncnc(Nc3cccc(N4CCOCC4)c3)n2)ccc1O[C@@H]1CCN(C(=O)CO)C1 [Example 81, (R)-2-((1-(2-hydroxyacetyl)pyrrolidin-3-yl)oxy)-5-(4-((3-morpholinophenyl)amino)-1,3,5-triazin-2-yl)benzonitrile]
13 | 678 | N#Cc1cc(-c2ncnc(Nc3ccc(C(N)=O)cc3)n2)ccc1O[C@@H]1CCN(C(=O)CO)C1 [Example 85, (R)-4-((4-(3-cyano-4-((1-(2-hydroxyacetyl)pyrrolidin-3-yl)oxy)phenyl)-1,3,5-triazin-2-yl)amino)benzamide]
2 | 53 | N#Cc1cc(-c2ncnc(Nc3ccc(N4CCN(C5COC5)CC4)cc3)n2)ccc1O[C@H]1CCN(C(=O)c2nnc[nH]2)CC1(F)F [Example 166, (S)-2-((3,3-difluoro-1-(4H-1,2,4-triazole-3-carbonyl)piperidin-4-yl)oxy)-5-(4-((4-(4-(oxetan-3-yl)piperazin-1-yl)phenyl)amino)-1,3,5-triazin-2-yl)benzonitrile]
1 | 189 | N#Cc1cc(-c2ncnc(Nc3ccc(N4CCO[C@@H](CO)C4)cc3)n2)ccc1O[C@H]1CCN(C(=O)CO)C[C@H]1F [Example 229, 2-(((3R,4S)-3-fluoro-1-(2-hydroxyacetyl)piperidin-4-yl)oxy)-5-(4-((4-((R)-2-(hydroxymethyl)morpholino)phenyl)amino)-1,3,5-triazin-2-yl)benzonitrile]
17 | 228 | C[C@H](O)C(=O)N1CC[C@@H](Oc2ccc(-c3ncnc(Nc4ccc(N5CCN(C6COC6)[C@H](C)C5)cc4)n3)cc2C#N)C(F)(F)C1 [Example 245, 2-(((R)-3,3-difluoro-1-((S)-2-hydroxypropanoyl)piperidin-4-yl)oxy)-5-(4-((4-((R)-3-methyl-4-(oxetan-3-yl)piperazin-1-yl)phenyl)amino)-1,3,5-triazin-2-yl)benzonitrile]
2 | 42 | C[C@H]1CN(C2COC2)CCN1c1ccc(Nc2ncnc(-c3ccc(O[C@H]4CCN(C(=O)c5nnc[nH]5)CC4(F)F)c(C#N)c3)n2)cc1 [Example 260, 2-(((S)-3,3-difluoro-1-(4H-1,2,4-triazole-3-carbonyl)piperidin-4-yl)oxy)-5-(4-((4-((S)-2-methyl-4-(oxetan-3-yl)piperazin-1-yl)phenyl)amino)-1,3,5-triazin-2-yl)benzonitrile]
1 | 46 | C[C@H]1CN(c2ccc(Nc3ncnc(-c4ccc(O[C@H]5CCN(C(=O)CO)CC5(F)F)c(C#N)c4)n3)cc2)CCN1C1COC1 [Example 261, 2-(((S)-3,3-difluoro-1-(2-hydroxyacetyl)piperidin-4-yl)oxy)-5-(4-((4-((S)-3-methyl-4-(oxetan-3-yl)piperazin-1-yl)phenyl)amino)-1,3,5-triazin-2-yl)benzonitrile]
3 | 308 | CC(=O)N1CC[C@H](Oc2ccc(-c3ncnc(Nc4ccc(C5CCNCC5)cc4)n3)cc2C#N)C(F)(F)C1 [Example 301, (S)-2-((1-acetyl-3,3-difluoropiperidin-4-yl)oxy)-5-(4-((4-(piperidin-4-yl)phenyl)amino)-1,3,5-triazin-2-yl)benzonitrile]
2 | 174 | CC(=O)N1CC[C@H](Oc2ccc(-c3ncnc(Nc4ccc(C5CCN(C)CC5)cc4)n3)cc2C#N)C(F)(F)C1 [Example 302, (S)-2-((1-acetyl-3,3-difluoropiperidin-4-yl)oxy)-5-(4-((4-(1-methylpiperidin-4-yl)phenyl)amino)-1,3,5-triazin-2-yl)benzonitrile]
 | 90 | Cc1n[nH]c(C(=O)N2CC[C@H](Oc3ccc(-c4ncnc(Nc5ccc(N6CCN(C7COC7)CC6)cc5)n4)cc3C#N)[C@H](F)C2)n1 [Example 451, 2-(((3R,4S)-3-fluoro-1-(3-methyl-1H-1,2,4-triazole-5-carbonyl)piperidin-4-yl)oxy)-5-(4-((4-(4-(oxetan-3-yl)piperazin-1-yl)phenyl)amino)-1,3,5-triazin-2-yl)benzonitrile]
 | 621 | N#Cc1cc(-c2ncnc(Nc3cnn(C(F)F)c3)n2)ccc1O[C@H]1CCN(C(=O)CO)C[C@H]1F [Example 454, 5-(4-((1-(difluoromethyl)-1H-pyrazol-4-yl)amino)-1,3,5-triazin-2-yl)-2-(((3R,4S)-3-fluoro-1-(2-hydroxyacetyl)piperidin-4-yl)oxy)benzonitrile]
 | 332 | C[C@@H](O)C(=O)N1CC[C@H](Oc2ccc(-c3ncnc(Nc4ccc(N5CCN(C6COC6)CC5)cc4)n3)cc2C#N)[C@H](F)C1 [Example 464, 2-(((3R,4S)-3-fluoro-1-((R)-2-hydroxypropanoyl)piperidin-4-yl)oxy)-5-(4-((4-(4-(oxetan-3-yl)piperazin-1-yl)phenyl)amino)-1,3,5-triazin-2-yl)benzonitrile]
 | 320 | CC(=O)N1CC[C@H](Oc2ccc(-c3ncnc(Nc4ccc(S(C)(=N)=O)cc4)n3)cc2C#N)C(F)(F)C1 (stereo partly shown) [Example 481]
 | ≥ 1000 | COc1cc(Nc2ncnc(-c3ccc(O[C@H]4CCN(C(=O)[C@H](C)O)C[C@H]4F)c(C#N)c3)n2)cnc1N1CCN(C2COC2)CC1 [Example 514, 2-(((3R,4S)-3-fluoro-1-((S)-2-hydroxypropanoyl)piperidin-4-yl)oxy)-5-(4-((5-methoxy-6-(4-(oxetan-3-yl)piperazin-1-yl)pyridin-3-yl)amino)-1,3,5-triazin-2-yl)benzonitrile]
 | ≥ 1000 | C[C@H](O)C(=O)N1CC[C@H](Oc2ccc(-c3ncnc(Nc4ccc([C@@H]5C(=O)N(C)CCN5C)cc4)n3)cc2C#N)[C@H](F)C1 [Example 518, 5-(4-((4-((R)-1,4-dimethyl-3-oxopiperazin-2-yl)phenyl)amino)-1,3,5-triazin-2-yl)-2-(((3R,4S)-3-fluoro-1-((S)-2-hydroxypropanoyl)piperidin-4-yl)oxy)benzonitrile]
 | 289 | N#Cc1cc(-c2ncnc(Nc3ccc(N4CCN(C5COC5)CC4)cc3)n2)ccc1O[C@H]1CCN(C(=O)[C@@H]2CSC(=O)N2)C[C@H]1F [Example 530, 2-(((3R,4S)-3-fluoro-1-((R)-2-oxothiazolidine-4-carbonyl)piperidin-4-yl)oxy)-5-(4-((4-(4-(oxetan-3-yl)piperazin-1-yl)phenyl)amino)-1,3,5-triazin-2-yl)benzonitrile]
 | 26 | COc1cc(Nc2ncnc(-c3ccc(O[C@H]4CCN(C(=O)CC#N)C[C@H]4F)c(C#N)c3)n2)ccc1N1CCN(C2COC2)CC1 [Example 558, 2-(((3R,4S)-1-(2-cyanoacetyl)-3-fluoropiperidin-4-yl)oxy)-5-(4-((3-methoxy-4-(4-(oxetan-3-yl)piperazin-1-yl)phenyl)amino)-1,3,5-triazin-2-yl)benzonitrile]
 | 70 | COc1cc(Nc2ncnc(-c3ccc(O[C@H]4CCN(C(=O)[C@@H](O)CO)C[C@H]4F)c(C#N)c3)n2)ccc1N1CCN(C2COC2)CC1 [Example 578, 2-(((3R,4S)-1-((S)-2,3-dihydroxypropanoyl)-3-fluoropiperidin-4-yl)oxy)-5-(4-((3-methoxy-4-(4-(oxetan-3-yl)piperazin-1-yl)phenyl)amino)-1,3,5-triazin-2-yl)benzonitrile]
 | 48 | COc1cc(Nc2ncnc(-c3ccc(O[C@H]4CCN(C(=O)[C@H](O)CO)C[C@H]4F)c(C#N)c3)n2)ccc1N1CCN(C2COC2)CC1 [Example 579, 2-(((3R,4S)-1-((R)-2,3-dihydroxypropanoyl)-3-fluoropiperidin-4-yl)oxy)-5-(4-((3-methoxy-4-(4-(oxetan-3-yl)piperazin-1-yl)phenyl)amino)-1,3,5-triazin-2-yl)benzonitrile]
 | 364 | C[C@H](O)C(=O)N1CC[C@H](Oc2ccc(-c3ncnc(Nc4ccc(N5CCN6CCOC[C@H]6C5)cc4)n3)cc2C#N)[C@H](F)C1 [Example 619, 2-(((3R,4S)-3-fluoro-1-((S)-2-hydroxypropanoyl)piperidin-4-yl)oxy)-5-(4-((4-((R)-hexahydropyrazino[2,1-c][1,4]oxazin-8(1H)-yl)phenyl)amino)-1,3,5-triazin-2-yl)benzonitrile]

Compound | IC50 (TBK1) [nM] | IC50 (hJAK2) [nM]
Cc1cc(Nc2ncnc(-c3ccc(O[C@H]4CCN(C(=O)[C@@H](O)CO)C[C@H]4F)c(C#N)c3)n2)ccc1N1CCN(C2COC2)CC1 [Example 575, 2-(((3R,4S)-1-((S)-2,3-dihydroxypropanoyl)-3-fluoropiperidin-4-yl)oxy)-5-(4-((3-methyl-4-(4-(oxetan-3-yl)piperazin-1-yl)phenyl)amino)-1,3,5-triazin-2-yl)benzonitrile] |  | 62
Cc1cc(Nc2ncnc(-c3ccc(O[C@H]4CCN(C(=O)[C@H](O)CO)C[C@H]4F)c(C#N)c3)n2)ccc1N1CCN(C2COC2)CC1 [Example 576, 2-(((3R,4S)-1-((R)-2,3-dihydroxypropanoyl)-3-fluoropiperidin-4-yl)oxy)-5-(4-((3-methyl-4-(4-(oxetan-3-yl)piperazin-1-yl)phenyl)amino)-1,3,5-triazin-2-yl)benzonitrile] |  | 56
